In US6602888B2, “Use of α1C specific compounds to treat benign prostatic hyperplasia” (Synaptic Pharmaceutical Corporation, priority 1992, dated 2003):
Read-outs that look alike come from different tables or passages of the source.

What was measured:
[1] = target: T1, human α2A adrenergic receptor (Homo sapiens, UniProt P08913); assay: Competition binding, [3H]rauwolscine, α2A receptor
T1 sequence (P08913 1-465): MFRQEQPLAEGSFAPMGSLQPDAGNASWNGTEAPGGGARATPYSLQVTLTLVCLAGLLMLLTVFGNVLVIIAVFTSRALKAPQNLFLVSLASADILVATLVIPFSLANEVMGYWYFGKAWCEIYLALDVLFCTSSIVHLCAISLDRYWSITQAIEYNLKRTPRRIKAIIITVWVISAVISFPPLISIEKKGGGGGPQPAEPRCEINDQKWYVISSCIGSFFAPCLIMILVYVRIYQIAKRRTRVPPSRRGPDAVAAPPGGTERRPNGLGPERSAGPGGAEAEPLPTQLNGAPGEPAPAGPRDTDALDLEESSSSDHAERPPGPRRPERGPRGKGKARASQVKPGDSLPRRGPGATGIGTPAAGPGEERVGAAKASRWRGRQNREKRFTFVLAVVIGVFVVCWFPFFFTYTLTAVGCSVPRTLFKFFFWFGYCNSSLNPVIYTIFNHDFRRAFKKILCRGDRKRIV
Description: (§1) To determine the potency of α1 antagonists at the α2 receptors, LM(tk−) cell lines stably transfected with the genes encoding the α2A, α2B, and α2C receptors were used. The cell line expressing the α2A receptor is designated L-α2A, and was deposited on Nov. […] The cell line expressing the α2B receptor is designated L-NGC-α2B, and was deposited on Oct. […] The cell line expressing the α2C receptor is designated L-α2C, and was deposited on Nov. […] Cell lysates were prepared as described above (see Radioligand Binding Assays), and suspended in 25 mM glycylglycine buffer (pH 7.6 at room temperature).

[2] = target: T2, human α2C adrenergic receptor (Homo sapiens, UniProt P18825); assay: Competition binding, [3H]rauwolscine, α2C receptor; conditions: for Ki: read-out: Alpha-2 Adrenergic a2c (pK1) (converted)
T2 sequence (P18825 1-462): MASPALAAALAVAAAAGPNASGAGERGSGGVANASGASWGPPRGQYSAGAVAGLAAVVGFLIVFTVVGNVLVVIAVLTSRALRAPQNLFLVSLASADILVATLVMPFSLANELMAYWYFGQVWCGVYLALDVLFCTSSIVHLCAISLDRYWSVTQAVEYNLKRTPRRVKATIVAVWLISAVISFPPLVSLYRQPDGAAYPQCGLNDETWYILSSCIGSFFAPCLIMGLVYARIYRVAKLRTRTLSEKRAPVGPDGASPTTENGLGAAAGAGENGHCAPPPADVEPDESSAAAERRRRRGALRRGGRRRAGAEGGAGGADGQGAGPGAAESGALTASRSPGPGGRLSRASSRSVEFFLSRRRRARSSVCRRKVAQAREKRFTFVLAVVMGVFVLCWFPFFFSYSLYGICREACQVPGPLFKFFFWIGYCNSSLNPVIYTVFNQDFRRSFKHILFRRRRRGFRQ
Description: as §1

[3] = target: T3, human histamine H2 receptor (Homo sapiens, UniProt P25021); assay: [3H]tiotidine binding, histamine H2 receptor; conditions: for Ki: read-out: Histamine H2 (pK1) (converted)
T3 construct: host or cells: COS-7, transient, DEAE-dextran
T3 sequence (P25021 whole entry): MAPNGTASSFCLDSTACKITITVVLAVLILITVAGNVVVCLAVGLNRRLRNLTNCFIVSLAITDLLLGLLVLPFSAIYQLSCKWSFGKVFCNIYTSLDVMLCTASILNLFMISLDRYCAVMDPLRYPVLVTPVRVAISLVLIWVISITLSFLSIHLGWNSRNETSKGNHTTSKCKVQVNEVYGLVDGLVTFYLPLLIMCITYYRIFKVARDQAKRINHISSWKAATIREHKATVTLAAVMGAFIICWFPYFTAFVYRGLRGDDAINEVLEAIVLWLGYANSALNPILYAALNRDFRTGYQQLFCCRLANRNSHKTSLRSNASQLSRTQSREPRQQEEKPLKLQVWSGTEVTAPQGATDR
Text: The coding sequence of the human H2 receptor was obtained from a human placenta genomic library, and cloned into the cloning site of PCEXV-3 eukaryotic expression vector. The plasmid DNA for the H2 receptor is designated pcEXV-H2, and was deposited on Nov. […] This construct was transfected into COS-7 cells by the DEAE-dextran method.

human 5HT1E receptor = target: T4, human 5HT1E receptor (Homo sapiens, UniProt P28566); assay: [3H]serotonin competition binding, 5HT1E receptor
T4 construct: host or cells: LM(tk-) clonal cell line 5HT1E-7
T4 sequence (P28566 whole entry): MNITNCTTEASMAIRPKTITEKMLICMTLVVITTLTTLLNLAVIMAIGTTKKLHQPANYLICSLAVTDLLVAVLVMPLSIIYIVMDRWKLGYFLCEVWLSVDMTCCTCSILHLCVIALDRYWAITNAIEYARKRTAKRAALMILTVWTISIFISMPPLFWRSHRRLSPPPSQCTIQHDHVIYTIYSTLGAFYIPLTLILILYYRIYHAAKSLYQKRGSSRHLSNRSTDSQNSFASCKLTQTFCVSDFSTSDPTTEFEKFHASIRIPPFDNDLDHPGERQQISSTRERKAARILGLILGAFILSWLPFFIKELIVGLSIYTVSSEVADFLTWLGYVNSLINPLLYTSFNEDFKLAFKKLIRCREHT
Description: 5HT1Dα, 5HT1Dβ, 5HT1E, 5HT1F Receptors: The cell lysates of LM(tk−) clonal cell line stably transfected with the genes encoding each of these 5HT receptor-subtypes were prepared as described above. The cell line for the 5HT1Dα receptor, designated as Ltk-8-30-84, was deposited on Apr. […] The cell for the 5HT1Dβ receptor, designated as Ltk-11, was deposited on Apr. […] The cell line for the 5HT1E receptor, designated 5 HT1E-7, was deposited on Nov. […] The cell line for the 5HT1F receptor, designated L-5-HT1F, was deposited on Dec. […] These preparations were suspended in 50 mM Tris-HCl buffer (pH 7.4 at 37° C.) containing 10 mM MgCl2, 0.2 mM EDTA, 10 μM pargyline, and 0.1% ascorbate.

human 5HT2 receptor = target: T5, human 5HT2 receptor (Homo sapiens, UniProt P28223); assay: [3H]ketanserin competition binding, 5HT2 receptor; conditions: for Ki: read-out: Serotonin 5HT2 (pK1)
T5 construct: host or cells: COS-7 (DEAE-dextran); the same paragraph also names a deposited line L-NGC-5HT2
T5 sequence (P28223 whole entry): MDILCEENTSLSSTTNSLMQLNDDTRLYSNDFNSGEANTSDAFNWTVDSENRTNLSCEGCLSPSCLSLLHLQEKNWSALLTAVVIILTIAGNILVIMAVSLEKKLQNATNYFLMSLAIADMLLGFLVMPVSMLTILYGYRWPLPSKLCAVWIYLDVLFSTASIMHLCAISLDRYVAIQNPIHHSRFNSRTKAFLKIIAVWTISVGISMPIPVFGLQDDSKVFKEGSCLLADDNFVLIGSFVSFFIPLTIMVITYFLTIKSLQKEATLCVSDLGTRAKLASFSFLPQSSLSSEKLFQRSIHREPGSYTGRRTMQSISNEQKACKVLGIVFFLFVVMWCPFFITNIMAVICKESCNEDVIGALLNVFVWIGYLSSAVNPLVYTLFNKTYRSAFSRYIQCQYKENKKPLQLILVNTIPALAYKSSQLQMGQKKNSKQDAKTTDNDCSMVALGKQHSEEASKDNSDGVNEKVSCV
Description: The coding sequence of the human 5HT2 receptor was obtained from a human brain cortex cDNA library, and cloned into the cloning site of pCEXV-3 eukaryotic expression vector. This construct was transfected into COS-7 cells by the DEAE-dextran method. […] Nonspecific binding was defined by the addition of 10 μM mianserin.

[4] = target: T6, human α1A adrenergic receptor (Homo sapiens, UniProt P25100); assay: Radioligand binding, [3H]prazosin, cloned human α1A adrenergic receptor
T6 sequence (P25100 1-572): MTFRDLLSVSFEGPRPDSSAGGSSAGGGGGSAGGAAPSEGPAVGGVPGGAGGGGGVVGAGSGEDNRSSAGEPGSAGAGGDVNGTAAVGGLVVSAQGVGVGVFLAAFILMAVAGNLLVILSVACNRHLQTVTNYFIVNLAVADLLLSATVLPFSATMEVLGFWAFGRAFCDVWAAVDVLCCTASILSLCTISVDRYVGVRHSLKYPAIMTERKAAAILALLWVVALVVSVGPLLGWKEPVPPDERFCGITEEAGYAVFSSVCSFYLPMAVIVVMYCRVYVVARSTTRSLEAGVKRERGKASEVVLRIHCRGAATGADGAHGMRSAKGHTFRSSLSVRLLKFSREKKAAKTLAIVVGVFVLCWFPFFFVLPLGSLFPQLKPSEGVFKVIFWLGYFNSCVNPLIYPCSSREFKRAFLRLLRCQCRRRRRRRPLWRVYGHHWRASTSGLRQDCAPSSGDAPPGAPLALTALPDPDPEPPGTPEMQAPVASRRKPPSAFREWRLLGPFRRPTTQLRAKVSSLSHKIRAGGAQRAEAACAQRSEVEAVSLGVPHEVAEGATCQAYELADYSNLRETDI

[5] = Table 2, cloned human receptor, read-out: Alpha-2 Adrenergic a2a (pK1) (converted)
[6] = Table 2, cloned human receptor, read-out: Serotonin 5HT1E (pK1)

Row | Compound | Alpha-2 Adrenergic a2a (pK1) ([1]; Table 2, cloned human receptor) | Alpha-2 Adrenergic a2c (pK1) ([2]; Table 2, cloned human receptor) | Ki ([3]; Table 2, cloned human receptor) | Ki (human 5HT2 receptor; Table 2, cloned human receptor) | Alpha-1 Adrenergic a1A (pK1) ([4]; Table 2, cloned human receptor) | Histamine H2 (pK1) ([3]; Table 2, cloned human receptor) | Serotonin 5HT2 (pK1) (human 5HT2 receptor; Table 2, cloned human receptor) | Ki ([2]; Table 2, cloned human receptor) | Serotonin 5HT1E (pK1) (human 5HT1E receptor; Table 2, cloned human receptor) | further results
1 | COC(=O)C1=C(C)NC(C)=C(C(=O)OCCCN2CCC(c3ccccc3)(c3ccccc3)CC2)C1c1ccc([N+](=O)[O-])cc1.Cl (stereo not drawn) [Compound 8, 2,6-Dimethyl-4-(4-nitrophenyl)-1,4-dihydropyridine-3,5-dicarboxylic acid [3-(4,4-diphenylpiperidin-1-yl)propyl] ester methyl ester hydrochloride] | 5.99 | 5.77 | 0.776 µM | > 0.1 µM | 6.52 |  |  |  |  | Ki (human 5HT1E receptor): > 10 µM
2 | COc1ccccc1N1CCN(CCCNc2c(C)c(=O)n(C)c(=O)n2C)CC1 [5-Methyl-Urapidil, 5-methylurapidil, reference compound] | 6.63 | 6.88 |  |  | 7.79 | 4.47 | <6.0 |  |  | 
3 | O=C(NC1CCN(CCc2c[nH]c3ccccc23)CC1)c1ccccc1 [Indoramin, reference compound] |  |  | 2.34 µM | > 0.1 µM |  |  |  | 6.03 µM |  | Ki [1, 5]: 11.5 µM; Ki (human 5HT1E receptor; [6]): > 10 µM
4 | COc1ccc(CCNCC2CCc3ccccc3C2)cc1 (stereo not drawn) [Compound 11, 2-[(4-Methoxyphenethyl)aminomethyl]-1,2,3,4-tetrahydronaphthalene] |  |  | 0.0355 µM | > 0.1 µM | 6.81 |  |  | 0.12 µM |  | Ki [1, 5]: 0.138 µM; Ki (human 5HT1E receptor): > 10 µM; Ki [4]: 0.155 µM
5 | C=Cc1sc2ccc(Cl)c3c2c1CN(C)CC3 [SKF-104856, 7-Chloro-2-ethenyl-3,4,5,6-tetrahydro-4-methylthieno[4,3,2-ef][3]benzazepine, reference compound] |  |  | 1.45 µM | > 1 µM |  |  |  | 0.0251 µM |  | Ki [1]: 0.0501 µM; Ki (human 5HT1E receptor; [6]): > 1 µM
6 | 4-fluoro-4-(8-fluoro-1,3,4,5-tetrahydro-2H-pyrido[4,3-b]indol-2-yl)butyrophenone hydrochloride [Compound A-30360, reference compound] |  |  |  |  |  |  |  |  | <5.0 | Alpha-2 Adrenergic a2a (pK1) [1]: 6.69; Alpha-2 Adrenergic a2c (pK1) [2]: 6.23; Histamine H2 (pK1) [3]: 5.77; Serotonin 5HT2 (pK1) (human 5HT2 receptor): <8.0; Alpha-1 Adrenergic a1A (pK1) [4]: 7.49
7 | O=C(CCCN1CCC(NC(=O)c2ccccc2)CC1)c1ccc(Cl)cc1 [Compound 7] |  | 6.09 |  |  | 6.82 | 6.02 | <6.0 |  | <5.0 | 
8 | O=C(CCCN1CCC(NC(=O)c2ccccc2)CC1)c1ccccc1 [Compound 9] | 5.80 | 5.90 |  |  | 6.12 | 5.44 | <7.0 |  | <5.0 | 
